Columns and labels:
Assay in all cases: Off-chip Mobility Shift Assay (MSA) kinase inhibition
Type in all cases: biochemical
LYNa = biological target: T1, LYNa (Homo sapiens, UniProt P07948); details: for inhibition at 0.1 µM: inhibitor concentration 0.1 μM
T1 construct: purchased Carna Biosciences
In short: (§1)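 Reactions containing test compound, kinase, substrate, ATP and metal ions ran for 1 or 5 hour(s) at room temperature in HEPES buffer (20 mM, pH 7.5) with 0.01% Triton X100 and 2 mM DTT. Phosphorylation was quantified by off-chip mobility shift.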

ABL = biological target: T2, ABL (Homo sapiens, UniProt P00519); details: for inhibition at 0.1 µM: inhibitor concentration 0.1 μM
T2 construct: purchased Carna Biosciences
In short: as §1

PDGFRβ = biological target: T3, PDGFRβ (Homo sapiens, UniProt P09619); details: for inhibition at 0.1 µM: inhibitor concentration 0.1 μM
T3 construct: purchased Carna Biosciences
In short: as §1

PDGFRα = biological target: T4, PDGFRα (Homo sapiens, UniProt P16234); details: for inhibition at 0.1 µM: inhibitor concentration 0.1 μM
T4 construct: purchased Carna Biosciences
In short: as §1

BRAF(V600E) = biological target: T5, BRAF(V600E) (Homo sapiens, UniProt P15056, V600E)
T5 construct: purchased Carna Biosciences
T5 sequence (P15056 whole entry V600E): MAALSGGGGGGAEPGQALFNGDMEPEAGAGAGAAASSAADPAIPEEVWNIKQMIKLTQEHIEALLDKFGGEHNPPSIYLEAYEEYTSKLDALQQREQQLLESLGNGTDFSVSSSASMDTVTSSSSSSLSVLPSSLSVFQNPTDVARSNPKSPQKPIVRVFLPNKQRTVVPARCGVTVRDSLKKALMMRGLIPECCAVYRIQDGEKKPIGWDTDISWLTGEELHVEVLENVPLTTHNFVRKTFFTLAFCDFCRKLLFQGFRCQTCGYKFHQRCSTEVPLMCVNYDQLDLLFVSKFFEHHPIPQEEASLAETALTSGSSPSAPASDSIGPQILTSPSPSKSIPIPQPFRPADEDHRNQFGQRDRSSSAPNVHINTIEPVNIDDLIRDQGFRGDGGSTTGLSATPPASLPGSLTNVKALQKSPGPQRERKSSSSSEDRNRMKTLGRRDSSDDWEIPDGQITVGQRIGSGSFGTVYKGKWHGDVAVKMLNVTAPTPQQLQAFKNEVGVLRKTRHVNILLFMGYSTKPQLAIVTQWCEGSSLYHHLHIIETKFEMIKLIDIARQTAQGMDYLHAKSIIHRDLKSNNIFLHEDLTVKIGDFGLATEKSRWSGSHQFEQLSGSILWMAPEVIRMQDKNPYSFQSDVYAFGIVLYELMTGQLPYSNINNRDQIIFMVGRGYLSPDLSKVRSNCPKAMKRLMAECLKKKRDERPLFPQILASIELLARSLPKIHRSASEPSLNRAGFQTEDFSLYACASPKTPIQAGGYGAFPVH
In short: as §1

FGFR3 = biological target: T6, FGFR3 (Homo sapiens, UniProt P22607); details: for inhibition at 0.1 µM: inhibitor concentration 0.1 μM
T6 construct: purchased Carna Biosciences
T6 sequence (P22607 23-806): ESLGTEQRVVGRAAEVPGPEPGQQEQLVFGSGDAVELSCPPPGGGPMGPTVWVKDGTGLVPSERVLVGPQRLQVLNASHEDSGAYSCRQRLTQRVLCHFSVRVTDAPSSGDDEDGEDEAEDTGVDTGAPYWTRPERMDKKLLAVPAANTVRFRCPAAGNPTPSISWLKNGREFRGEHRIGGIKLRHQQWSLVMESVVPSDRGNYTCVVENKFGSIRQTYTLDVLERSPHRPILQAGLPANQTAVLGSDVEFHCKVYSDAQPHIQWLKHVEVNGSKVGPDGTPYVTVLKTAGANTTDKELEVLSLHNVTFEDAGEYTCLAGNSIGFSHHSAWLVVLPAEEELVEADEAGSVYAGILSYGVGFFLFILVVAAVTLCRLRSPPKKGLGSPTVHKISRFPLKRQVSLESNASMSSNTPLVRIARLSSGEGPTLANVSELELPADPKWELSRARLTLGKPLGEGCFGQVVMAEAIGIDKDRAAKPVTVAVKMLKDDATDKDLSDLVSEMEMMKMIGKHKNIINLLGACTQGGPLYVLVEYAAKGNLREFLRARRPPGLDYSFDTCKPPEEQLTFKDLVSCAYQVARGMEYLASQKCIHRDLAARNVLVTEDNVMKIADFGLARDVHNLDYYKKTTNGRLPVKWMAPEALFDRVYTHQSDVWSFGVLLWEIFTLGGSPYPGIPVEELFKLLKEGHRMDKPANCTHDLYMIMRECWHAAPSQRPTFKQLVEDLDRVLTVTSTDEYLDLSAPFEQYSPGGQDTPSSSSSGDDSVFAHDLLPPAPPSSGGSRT
In short: as §1

KDR = biological target: T7, KDR (Homo sapiens, UniProt P35968); details: for inhibition at 0.1 µM: inhibitor concentration 0.1 μM
T7 construct: purchased Carna Biosciences
T7 sequence (P35968 20-1356): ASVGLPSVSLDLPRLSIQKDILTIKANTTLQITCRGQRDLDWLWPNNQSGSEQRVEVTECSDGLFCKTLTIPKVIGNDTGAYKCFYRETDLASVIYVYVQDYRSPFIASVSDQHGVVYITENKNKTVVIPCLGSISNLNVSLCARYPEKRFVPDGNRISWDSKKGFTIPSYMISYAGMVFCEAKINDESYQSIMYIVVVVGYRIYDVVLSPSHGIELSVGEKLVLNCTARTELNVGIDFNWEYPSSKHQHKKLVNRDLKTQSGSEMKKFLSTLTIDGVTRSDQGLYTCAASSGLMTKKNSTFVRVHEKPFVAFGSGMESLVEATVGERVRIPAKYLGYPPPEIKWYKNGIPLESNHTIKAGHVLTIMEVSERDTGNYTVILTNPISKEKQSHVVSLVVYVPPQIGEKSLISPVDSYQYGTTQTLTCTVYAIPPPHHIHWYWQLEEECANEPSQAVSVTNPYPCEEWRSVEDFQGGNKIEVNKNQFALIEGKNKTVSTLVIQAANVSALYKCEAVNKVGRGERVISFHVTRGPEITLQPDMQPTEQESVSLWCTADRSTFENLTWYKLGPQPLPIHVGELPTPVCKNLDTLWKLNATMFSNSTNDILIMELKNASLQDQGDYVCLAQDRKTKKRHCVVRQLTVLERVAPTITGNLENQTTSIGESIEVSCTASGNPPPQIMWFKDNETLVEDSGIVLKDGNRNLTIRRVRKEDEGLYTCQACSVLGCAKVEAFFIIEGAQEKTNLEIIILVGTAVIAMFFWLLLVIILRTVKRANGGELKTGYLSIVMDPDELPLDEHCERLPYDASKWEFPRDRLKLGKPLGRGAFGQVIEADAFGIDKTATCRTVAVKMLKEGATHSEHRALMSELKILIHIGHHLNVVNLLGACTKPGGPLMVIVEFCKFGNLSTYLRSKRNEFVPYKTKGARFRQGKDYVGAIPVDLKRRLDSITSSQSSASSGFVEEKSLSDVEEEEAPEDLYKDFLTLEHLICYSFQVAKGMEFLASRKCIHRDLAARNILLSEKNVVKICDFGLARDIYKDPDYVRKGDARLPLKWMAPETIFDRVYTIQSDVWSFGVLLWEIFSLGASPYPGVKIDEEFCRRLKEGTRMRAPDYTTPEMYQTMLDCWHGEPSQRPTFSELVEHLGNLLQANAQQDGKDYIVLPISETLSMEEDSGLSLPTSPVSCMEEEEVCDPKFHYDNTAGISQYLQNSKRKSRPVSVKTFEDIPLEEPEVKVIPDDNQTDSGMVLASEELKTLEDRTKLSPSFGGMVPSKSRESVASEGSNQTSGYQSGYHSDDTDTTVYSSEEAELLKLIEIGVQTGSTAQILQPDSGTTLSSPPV
In short: as §1

JAK3 = biological target: T8, JAK3 (Homo sapiens, UniProt P52333); details: for inhibition at 0.1 µM: inhibitor concentration 0.1 μM
T8 construct: purchased Carna Biosciences
T8 sequence (P52333 1-1124): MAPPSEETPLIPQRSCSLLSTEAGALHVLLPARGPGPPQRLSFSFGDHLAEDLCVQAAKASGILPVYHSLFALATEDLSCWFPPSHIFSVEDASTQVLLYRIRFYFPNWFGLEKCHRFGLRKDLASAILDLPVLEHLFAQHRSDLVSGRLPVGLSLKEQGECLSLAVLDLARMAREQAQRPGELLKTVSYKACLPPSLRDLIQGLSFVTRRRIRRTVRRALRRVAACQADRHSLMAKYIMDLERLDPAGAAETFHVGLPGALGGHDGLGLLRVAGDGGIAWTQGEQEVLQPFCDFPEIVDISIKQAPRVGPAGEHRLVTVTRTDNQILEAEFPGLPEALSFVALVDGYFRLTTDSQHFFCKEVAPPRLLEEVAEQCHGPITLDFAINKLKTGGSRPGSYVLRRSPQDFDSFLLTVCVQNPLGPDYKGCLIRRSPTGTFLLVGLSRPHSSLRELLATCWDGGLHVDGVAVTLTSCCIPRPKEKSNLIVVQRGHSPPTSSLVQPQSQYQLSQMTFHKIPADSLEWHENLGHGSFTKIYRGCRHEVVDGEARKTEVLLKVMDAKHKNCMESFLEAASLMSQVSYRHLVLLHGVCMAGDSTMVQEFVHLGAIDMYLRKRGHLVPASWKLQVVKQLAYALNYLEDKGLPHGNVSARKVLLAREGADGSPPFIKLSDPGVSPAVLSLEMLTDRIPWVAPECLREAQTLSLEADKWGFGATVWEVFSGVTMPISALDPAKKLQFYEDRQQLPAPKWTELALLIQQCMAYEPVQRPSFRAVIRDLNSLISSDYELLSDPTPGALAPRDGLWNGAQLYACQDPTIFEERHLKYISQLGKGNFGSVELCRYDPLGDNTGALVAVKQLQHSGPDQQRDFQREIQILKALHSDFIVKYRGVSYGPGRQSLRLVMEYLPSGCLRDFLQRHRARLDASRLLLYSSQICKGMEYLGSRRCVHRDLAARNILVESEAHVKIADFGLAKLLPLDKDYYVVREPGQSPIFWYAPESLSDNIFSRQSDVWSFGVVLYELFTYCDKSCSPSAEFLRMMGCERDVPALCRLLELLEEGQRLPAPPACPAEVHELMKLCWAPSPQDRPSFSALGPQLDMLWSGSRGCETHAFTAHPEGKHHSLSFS
In short: as §1

BRAF = biological target: T9, BRAF (Homo sapiens, UniProt P15056)
T9 construct: purchased Carna Biosciences
T9 sequence (P15056 whole entry): as the sequence (P15056 whole entry V600E) above, with E600V counted along it
In short: as §1

MLK1 = biological target: T10, MLK1 (Homo sapiens, UniProt P80192); details: inhibitor concentration 0.1 μM
T10 construct: purchased Carna Biosciences
T10 sequence (P80192 whole entry): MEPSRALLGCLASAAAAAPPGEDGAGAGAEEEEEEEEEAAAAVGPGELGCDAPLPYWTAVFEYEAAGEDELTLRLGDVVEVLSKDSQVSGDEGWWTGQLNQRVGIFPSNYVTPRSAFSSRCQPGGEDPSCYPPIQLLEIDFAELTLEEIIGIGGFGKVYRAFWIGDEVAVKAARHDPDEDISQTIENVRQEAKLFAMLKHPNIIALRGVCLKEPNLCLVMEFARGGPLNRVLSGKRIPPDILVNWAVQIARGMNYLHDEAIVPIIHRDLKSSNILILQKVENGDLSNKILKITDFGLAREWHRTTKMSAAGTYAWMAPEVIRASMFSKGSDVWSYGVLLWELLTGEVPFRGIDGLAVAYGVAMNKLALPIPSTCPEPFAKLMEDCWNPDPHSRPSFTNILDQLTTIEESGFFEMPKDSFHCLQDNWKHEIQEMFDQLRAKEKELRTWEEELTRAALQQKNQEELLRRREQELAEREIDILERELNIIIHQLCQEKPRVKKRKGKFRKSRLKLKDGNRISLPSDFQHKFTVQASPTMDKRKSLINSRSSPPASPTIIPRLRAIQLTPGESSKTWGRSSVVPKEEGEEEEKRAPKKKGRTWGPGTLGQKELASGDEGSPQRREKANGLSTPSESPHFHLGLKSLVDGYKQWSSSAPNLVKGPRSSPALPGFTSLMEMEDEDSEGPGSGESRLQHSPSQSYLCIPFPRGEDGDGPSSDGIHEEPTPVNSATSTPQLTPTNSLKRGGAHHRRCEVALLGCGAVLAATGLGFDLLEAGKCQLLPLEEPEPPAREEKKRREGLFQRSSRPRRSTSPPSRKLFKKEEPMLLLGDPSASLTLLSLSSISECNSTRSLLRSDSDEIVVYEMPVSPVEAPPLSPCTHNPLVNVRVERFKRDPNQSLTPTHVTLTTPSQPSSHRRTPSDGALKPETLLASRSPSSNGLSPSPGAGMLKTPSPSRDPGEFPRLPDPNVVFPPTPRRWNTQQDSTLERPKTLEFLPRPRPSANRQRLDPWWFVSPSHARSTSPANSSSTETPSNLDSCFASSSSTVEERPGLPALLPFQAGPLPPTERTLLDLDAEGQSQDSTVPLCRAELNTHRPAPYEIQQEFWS
In short: as §1

PIM1 = biological target: T11, PIM1 (Homo sapiens, UniProt P11309); details: inhibitor concentration 0.1 μM
T11 construct: purchased Carna Biosciences
T11 sequence (P11309 whole entry): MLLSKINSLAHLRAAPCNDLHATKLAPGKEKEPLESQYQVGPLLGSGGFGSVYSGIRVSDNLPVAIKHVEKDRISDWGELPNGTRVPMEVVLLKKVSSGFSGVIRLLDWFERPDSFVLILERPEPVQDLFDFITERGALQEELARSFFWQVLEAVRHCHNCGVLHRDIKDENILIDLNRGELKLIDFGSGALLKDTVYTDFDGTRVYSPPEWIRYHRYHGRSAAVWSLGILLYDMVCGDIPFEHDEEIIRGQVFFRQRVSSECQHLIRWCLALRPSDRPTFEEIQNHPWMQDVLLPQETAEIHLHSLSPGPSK
In short: as §1

AXL = biological target: T12, AXL (Homo sapiens, UniProt P30530); details: inhibitor concentration 0.1 μM
T12 construct: purchased Carna Biosciences
T12 sequence (P30530 26-894): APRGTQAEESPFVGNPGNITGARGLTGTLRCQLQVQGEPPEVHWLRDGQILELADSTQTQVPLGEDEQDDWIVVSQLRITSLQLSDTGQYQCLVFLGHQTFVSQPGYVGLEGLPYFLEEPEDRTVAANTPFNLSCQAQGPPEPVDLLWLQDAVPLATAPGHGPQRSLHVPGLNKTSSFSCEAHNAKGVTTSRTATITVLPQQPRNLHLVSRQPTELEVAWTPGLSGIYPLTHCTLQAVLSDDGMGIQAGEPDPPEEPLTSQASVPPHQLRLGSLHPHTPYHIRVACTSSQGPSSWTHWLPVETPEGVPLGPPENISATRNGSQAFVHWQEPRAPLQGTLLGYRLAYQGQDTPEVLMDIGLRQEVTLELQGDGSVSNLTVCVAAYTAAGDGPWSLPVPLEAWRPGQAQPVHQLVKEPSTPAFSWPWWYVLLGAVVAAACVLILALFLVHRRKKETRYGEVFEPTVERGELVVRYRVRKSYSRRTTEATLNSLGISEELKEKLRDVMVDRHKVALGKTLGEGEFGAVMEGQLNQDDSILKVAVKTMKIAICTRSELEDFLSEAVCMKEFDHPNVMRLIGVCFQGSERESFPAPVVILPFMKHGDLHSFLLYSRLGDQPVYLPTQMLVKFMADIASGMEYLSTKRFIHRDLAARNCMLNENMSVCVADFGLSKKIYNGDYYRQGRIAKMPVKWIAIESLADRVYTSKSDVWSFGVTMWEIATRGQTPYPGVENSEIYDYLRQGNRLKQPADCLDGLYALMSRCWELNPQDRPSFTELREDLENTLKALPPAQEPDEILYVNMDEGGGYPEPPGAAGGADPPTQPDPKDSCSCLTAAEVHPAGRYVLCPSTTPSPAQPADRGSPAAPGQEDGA
In short: as §1

[1] = inhibitor concentration 0.01 μM
[2] = inhibitor concentration 0.01 μM, 0.01 µM

T1 sequence (P07948 whole entry): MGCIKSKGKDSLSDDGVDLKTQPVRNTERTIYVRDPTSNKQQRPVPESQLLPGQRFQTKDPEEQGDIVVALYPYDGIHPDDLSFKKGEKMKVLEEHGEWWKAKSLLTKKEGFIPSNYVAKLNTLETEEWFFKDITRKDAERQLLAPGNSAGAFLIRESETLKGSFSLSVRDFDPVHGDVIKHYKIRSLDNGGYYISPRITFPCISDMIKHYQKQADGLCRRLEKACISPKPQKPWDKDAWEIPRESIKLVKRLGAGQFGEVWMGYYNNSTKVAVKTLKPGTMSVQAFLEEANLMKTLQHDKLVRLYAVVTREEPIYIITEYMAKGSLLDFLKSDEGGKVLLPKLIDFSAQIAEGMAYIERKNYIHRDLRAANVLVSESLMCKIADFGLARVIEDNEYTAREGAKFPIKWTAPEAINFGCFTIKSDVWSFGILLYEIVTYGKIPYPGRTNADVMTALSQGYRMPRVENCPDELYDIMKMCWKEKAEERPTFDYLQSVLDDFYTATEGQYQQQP

| inhibition at 0.1 µM (LYNa) | inhibition at 0.1 µM (PDGFRβ) | inhibition at 0.1 µM (PDGFRα) | inhibition at 0.1 µM (KDR) | inhibition at 0.1 µM (JAK3) | inhibition at 0.1 µM (ABL) | inhibition at 0.1 µM (MLK1) | inhibition at 0.1 µM (FGFR3) | inhibition at 0.1 µM (PIM1) | inhibition at 0.1 µM (AXL) | Compound | further results |
| --- | --- | --- | --- | --- | --- | --- | --- | --- | --- | --- | --- |
| > 50% | < 50% | > 50% | > 50% | < 50% |  |  |  |  |  | O=C(c1c(F)ccc(NS(=O)(=O)CCCO)c1F)c1c[nH]c2ncc(-c3ccc(Cl)cc3)cc12 [200-17, N-[3-[5-(4-chlorophenyl)-1H-pyrrolo[2,3-b]pyridine-3-carbonyl]-2,4-difluorophenyl]-3-hydroxypropane-1-sulfonamide] | inhibition at 0.01 µM (LYNa; [1]): < 30%; inhibition at 1 µM (LYNa; inhibitor concentration 1 μM): > 50%; inhibition at 1 µM (ABL; inhibitor concentration 1 μM): < 50%; inhibition at 0.01 µM (PDGFRβ; [1]): < 30%; inhibition at 1 µM (PDGFRβ; inhibitor concentration 1 μM): > 50%; inhibition at 0.01 µM (PDGFRα; [1]): < 30%; inhibition at 1 µM (PDGFRα; inhibitor concentration 1 μM): > 50%; inhibition at 1 µM (BRAF(V600E); inhibitor concentration 1 μM): > 50%; inhibition at 1 µM (FGFR3; inhibitor concentration 1 μM): > 50%; inhibition at 0.01 µM (KDR; [1]): < 30%; inhibition at 1 µM (KDR; inhibitor concentration 1 μM): > 50%; inhibition at 0.01 µM (JAK3; [1]): < 30%; inhibition at 1 µM (JAK3; inhibitor concentration 1 μM): > 50%; inhibition at 1 µM (BRAF; inhibitor concentration 1 μM): < 50% |
| < 30% | < 30% | < 30% | < 30% | < 30% | < 30% | < 30% | < 30% | < 30% | < 30% | O=C(c1c(F)ccc(NS(=O)(=O)CC(O)CO)c1F)c1c[nH]c2ncc(-c3ccc(Cl)cc3)cc12 (stereo not drawn) [200-73, N-[3-[5-(4-chlorophenyl)-lH-pyrrolo [2,3-b]pyridine-3-carbonyl]-2,4-difluorophenyl]-2,3-dihydroxypropane-l-sulfonamide] | inhibition at 0.1 µM (BRAF(V600E); inhibitor concentration 0.1 μM): < 30%; inhibition at 0.1 µM (BRAF; inhibitor concentration 0.1 μM): < 30% |
|  |  |  |  |  |  |  |  |  |  | C/C=C/S(=O)(=O)Nc1ccc(F)c(C(=O)c2c[nH]c3ncc(-c4ccc(Cl)cc4)cc23)c1F [200-93b] | PDGFRβ inhibition (PDGFRβ; [2]): <20%; PDGFRα inhibition (PDGFRα; [1]): >20%; BRAF(V600E) inhibition (BRAF(V600E); [2]): <20%; JAK3 inhibition (JAK3; [2]): <20%; BRAF inhibition (BRAF; [2]): <20% |
| > 30% | < 30% | > 30% | < 30% | < 30% | < 30% | < 30% | < 30% | < 30% | < 30% | CC(=O)CS(=O)(=O)Nc1ccc(F)c(C(=O)c2c[nH]c3ncc(-c4ccc(Cl)cc4)cc23)c1F [200-117] |  |

| Compound | inhibition at 0.1 µM (LYNa) | inhibition at 0.1 µM (PDGFRβ) | inhibition at 0.1 µM (PDGFRα) | inhibition at 0.1 µM (KDR) | inhibition at 0.1 µM (JAK3) | inhibition at 0.1 µM (ABL) | inhibition at 0.1 µM (MLK1) | inhibition at 0.1 µM (FGFR3) | inhibition at 0.1 µM (PIM1) | inhibition at 0.1 µM (AXL) | further results |
| --- | --- | --- | --- | --- | --- | --- | --- | --- | --- | --- | --- |
| CC(O)CS(=O)(=O)Nc1ccc(F)c(C(=O)c2c[nH]c3ncc(-c4ccc(Cl)cc4)cc23)c1F (centres unmarked) [200-115] | < 30% | < 30% | > 30% | < 30% | < 30% | < 30% | < 30% | < 30% | < 30% | < 30% |  |

From US10106538B2, “Inhibitors of protein kinases” (PRINCETON DRUG DISCOVERY INC, priority 2015, dated 2018)
